Assay results taken from patent US12629408B2, “Peptides with anti-tumor activity” (UNIVERSITA' DEGLI STUDI DI PADOVA, priority 2019, dated 2026).
Where two headings read alike, the source gives them in different places. Square brackets hold non-standard residues; d marks the D form. Ends that are not written are not given here. Ahx = NCCCCCC(=O)O; βAla = NCCC(=O)O

Legend:
[1] = test system: HeLa cervical cancer cell line; assay: Cell viability after treatment with ACPP-HK2 sequence variants; assay type: cell-based, human; settings: between 5 and 50 μM, 18 or 36 hours
Text: FIGS. 9A and 9B report cell viability after treatment of tumor cells (HeLa cervical cancer cell line) at various concentrations and times with the peptides ACPP-HK2 (SEQ ID NO:1), ACPP-HK2 II (SEQ ID) NO: 8), ACPP-HK2 III (SEQ ID NO: 9) and ACPP-HK2 IV (SEQ ID NO:10).

[2] = test system: murine colon carcinoma line CT26; assay: In vivo colon cancer, CT26 subcutaneous tumor, injection into the tumors (FIG. 1); parameters: species or system Balb/c mice
Description: (§1) 100,000 tumor cells from the murine colon carcinoma line CT26 were injected subcutaneously (in the right flank) to male Balb/c mice. The transplanted cells give rise to a subcutaneous tumor clearly visible from the outside in just over a week. Using this in vivo tumorigenesis procedure, we conducted three different experiments (described below) whose results are represented in FIGS. 1, 2 and 3.
At 8 days post-cell inoculation, the mice were divided into three groups (FIG. 1) and saline boluses (NaCl) without any other solute, or containing the active form of ACPP-HK2 resulting from the proteolytic cut (pepHK2, 2 nmol/injection), or finally containing the entire ACPP-HK2 (2 nmol/injection) were injected into the tumors. Each bolus consisted of 20 μl solution and was injected every 12 hours up to 60 hours. 72 hours after the start of the treatment, the mice were sacrificed, and the tumor volume was measured.

[3] = test system: murine breast cancer cell line 4T1; assay: In vivo breast cancer, 4T1 subcutaneous tumor, intraperitoneal injections (FIG. 4); parameters: species or system mice; settings: 4T1, intraperitoneal, 60 nmoles every 12 hours up to 60 hours
Description: In this experiment (FIG. 4), 200,000 murine breast cancer cell line 4T1 were injected subcutaneously into female mice. At 9 days post-inoculation of the cells, the mice were divided into two experimental groups and 60 nmoles of peptides (ACPP-HK2 or ACPP-SCR) dissolved in 500 μl of saline solution were injected intraperitoneally. The injections followed one the other every 12 hours up to 60 hours and at 72 hours the experiment ended.

non-tumor tissues [4] = settings: mouse, in vivo
Description: (§2) At the end of each experiment shown in FIGS. 2, 3 and 4, and described in Example 2, male and female Balb/c mice underwent a complete autopsy with the assistance of an anatomopathologist expert. […] The group of mice not receiving any peptide treatment (NaCl) acts as an additional control.
(§3) List of organs or tissues analyzed: heart, skeletal muscle, kidney, spleen, lung, liver, brain, intestine, pancreas, bone marrow, lymph nodes, thyroid gland, parathyroid glands, and adrenal glands.

non-tumor tissues [5] = assay: Autopsy and histological evaluation of internal organs of treated mice
Description: as §2, §3

[6] = test system: murine colon carcinoma line CT26; assay: In vivo colon cancer, CT26 subcutaneous tumor, intraperitoneal injections (FIGS. 2, 3); parameters: species or system Balb/c mice
Description: as §1
Administration was performed every 12 hours by means of intraperitoneal injections of 500 μl each containing 30 nmoles of peptide (ACPP-HK2 or ACPP-SCR). […] Every 48 hours the size of the tumors was measured externally, and their volumes calculated.
In this experiment, a double dose of peptides (60 nmoles/injection) was administered compared to the second experiment, again by intraperitoneal injection.

Q: What does the source list for “MIASHLLAYFFTELN βA RRRRRRRRR PLGLAG Ahx EEEEEEEE (MIASHLLAYFFTELN[βAla]RRRRRRRRRPLGLAG[Ahx]EEEEEEEE) [ACPP-HK2]”?
A: cell viability [1]: able to decrease cell viability of cancer cells; tumor growth (tumor volume) ([2]; 2 nmol/injection into the tumors every 12 hours up to 60 hours, measured at 72 hours, vs saline): reduce tumor growth; efficacy on tumor growth, ACPP-HK2 compared with pepHK2 ([2]; 2 nmol/injection into the tumors, 72 hours): more effective; tumor growth [3]: almost blocked; tumor volume vs ACPP-SCR control ([3]; end at 72 hours): significantly smaller in volume than control tumors injected with ACPP-SCR; histological characteristics of formalin-fixed sections of internal organs (non-tumor tissues [4]): without finding any differences among different experimental groups (ACPP-SCR and ACPP-HK2) or any tissue alterations; toxic side effect for non-tumor tissues and the whole organism (non-tumor tissues [5]; expert's conclusion after autopsy and histology): no toxic side effect; tumor volume vs ACPP-SCR control ([6]; 30 nmoles every 12 hours, after 48 and 96 hours): significantly smaller in volume than the control tumors injected with ACPP-SCR; tumor growth ([6]; 60 nmoles/injection every twelve hours up to the sixtieth hour): strongly reduces, up to almost blocking, tumor growth

Q: With “SHLLAYFFTELN-GRKKRRQRRRG-PLGLAG-Ahx-EEEEEEEE (SHLLAYFFTELNGRKKRRQRRRGPLGLAG[Ahx]EEEEEEEE) [ACPP-HK2 III, variant ACPP-HK2 III of the peptide ACPP-HK2, 38-amino acid peptide]” as the substance, how does the cell viability [1] read?
A: able to decrease cell viability of cancer cells

Q: Which cell viability [1] does the source give for “SHLLAYFFTELN-RRRRRRRRR-PLGLAG-Ahx-EEEEEEEE (SHLLAYFFTELNRRRRRRRRRPLGLAG[Ahx]EEEEEEEE) [ACPP-HK2 II, variant ACPP-HK2 II of the peptide ACPP-HK2, 36-amino acid peptide]” here?
A: able to decrease cell viability of cancer cells

Q: Which cell viability [1] does the source give for “SHLLAYFFTELNHD-RRRRRRRRR-PLGLAG-Ahx-EEEEEEEE (SHLLAYFFTELNHDRRRRRRRRRPLGLAG[Ahx]EEEEEEEE) [ACPP-HK2 IV, variant ACPP-HK2 IV of the peptide ACPP-HK2, 38-amino acid peptide]” here?
A: able to decrease cell viability of cancer cells

Q: Which “histological characteristics of formalin-fixed sections of internal organs” value (non-tumor tissues [5]; mice of the experiments of FIGS. 2, 3 and 4, heart, skeletal muscle, kidney, spleen, lung, liver, brain and others) does the source give for “VGAHAGEYGAEALER βA RRRRRRRRR PLGLAG Ahx EEEEEEEE (VGAHAGEYGAEALER[βAla]RRRRRRRRRPLGLAG[Ahx]EEEEEEEE) [ACPP-SCR, reference compound]” here?
A: without finding any differences among different experimental groups (ACPP-SCR and ACPP-HK2) or any tissue alterations
